Patent publication US20230393140A1, “BINDING ASSAYS INVOLVING A PLURALITY OF SYNTHETIC COMPOUNDS, TARGETS, AND COUNTER TARGETS” (SRI International, priority 2020, published 2023)
Like-named read-outs stand apart in the source and are kept apart here. Numbered stars: 1 amine (or outer) side, 2 acyl side, 3 side chain; on linkers, the order of the positions; unused ones are H or OH. Square brackets hold non-standard residues; d marks the D form. Peptide text beside a SMILES is read from it. * marks the point of attachment. 5FAM = O=C1OC2(c3ccc(O)cc3Oc3cc(O)ccc32)c2ccc(C(=O)*)cc21; NHCH2C6H4(4-CH2CONH2) = NC(=O)Cc1ccc(CN*)cc1; X1 = O=C(Cc1ccc(CN[*:1])cc1)[*:2]

Experiments:
[1] = biological target: T1, cRaf/K-Ras (G12V) PPI (Homo sapiens, UniProt P01116, G12V); assay: K-Ras-cRaf HTRF-based PPI profiling; assay type: biochemical; conditions: for blank corrected HTRF: raw data; for % Binding: relative to DMSO controls;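 as to blank corrected HTRF: background is the signal of wells with all components except cRaf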
T1 construct: b-Kras G12V (GppNHp) (aa 2-169); biotin (b-
Protocol: In some experimental embodiments, a buffer was added to the assay wells which included […] HEPES pH 7.4, 150 mM NaCl, 5 mM MgCl2, 1 mM DTT, 0.005% NP40, and 1% DMSO. 5 uL of 3×K-Ras protein was then added to the assay wells, followed by the synthetic compounds which were added using acoustic technology (ECHO, Labcyte) followed by thirty minutes incubation at room temperature. Afterwards, 5 uL of 3×cRaf protein was added to the assay wells and 5 uL of detection mix was then added to the assay wells after 30 minutes. The detection mix included Mab anti-GST-Tb cryptate (Cisbio 61GSTTLB) and streptavidin-XL665 (Ex/Em=(337/665; 620) in PHERAstar (BMG Labtech)). HTRF signal was measured […] later.
The data includes raw data (signal-background without cRaf protein but with all other component), % binding (relative to DMSO controls), and curve fits. Curve fits were performed when the activities at the highest concentration of the synthetic compounds were less than 65%. Tables 18A-18B below includes the raw data (e.g., blank corrected HTRF) and Tables 19A-19B includes the % binding.

[2] = biological target: T2, K-Ras (Homo sapiens, UniProt P01116, G12V); assay: MST binding affinity of resynthesized NNP hits to K-Ras; conditions: read-out: KD (nM) [95% conf. int]; MST; NNP1 library hit; target K-Ras; one-site binding model
T2 construct: purchased Cytoskeleton Inc. CS-RS04
Protocol: Loading was performed according to the following protocol: The 200 μM stock solution of the target protein was diluted to 10 μM in 20 mM HEPES pH 8.0, 150 mM NaCl, 10 mM MgCl2, 1 mM TCEP, 0.05% Tween-20 (total volume 110 μL). 10 μL were set aside for later labeling quality control. EDTA pH 8.0 (stock concentration 10 mM) was added to the protein solution to a final concentration of 80 μM. GTP (stock concentration 50 mM) was added to the protein solution to a final concentration of 750 μM. The solution was incubated at 30° C. for 2 hours (PCR tube) and then placed on ice for 2 minutes. MgCl2 was added to the protein solution to a final concentration of 100 mM. The resulting protein solution was buffer exchanged into the buffer required in the labeling kit for labeling. […] All the other target molecules (TNFα, IL-6, IL-6R and ASGPR) were used as received without any additional treatment.
Hit binding affinity to various targets were determined using Microscale Thermophoresis (MST). MST experiments were performed on a Monolith NT.115pico (NanoTemper Technologies GmbH, Munich, Germany). Measurements were performed at room temperature, in triplicate with incubation periods of 15, 30 and 45 minutes. […] Targets were labeled using Nanotemper Monolith 2nd Generation Protein Labeling Kits. RED-MALEIMIDE (Maleimide-647-dye) labeling kit was used for K-Ras and RED-NHS (NHS-647-dye) labeling kit was used for IL-6, IL-6R, TNFα and ASGPR. The buffer for the ASGPR contained 20 mM HEPES pH 7.4, 150 mM NaCl, 10 mM MgCl2, 2 mM CaCl2, 0.05% Pluronic F-127, and 1 mM DTT; for IL-6 contained 20 mM HEPES pH 7.4, 150 mM KCl, 10 mM MgCl2, and 0.1% Pluronic F-127; for the soluble IL-6 receptor 20 mM HEPES pH 7.4, 150 mM NaCl, 10 mM MgCl2, and 0.05% Tween-20; for K-Ras 20 mM HEPES pH 7.4, 150 mM NaCl, 10 mM MgCl2, 0.05% Tween-20 and 1 mM DTT; for TNFα 10 mM HEPES pH 7.4, 150 mM NaCl, 10 mM MgCl2, 0.05% Polysorbate-20. Triplicate data was analyzed using MO.AffinityAnalysis software (NanoTemper Technologies GmbH).

Cn1cnc(Cn2ccc3ccc(CNCc4[nH]c5ccccc5c4[C@H]4NC(=O)c5ccc(O)cc54)cc32)c1 [BI-2852, reference compound]
IC50 ([1]; 1% DMSO in reaction, compounds without fluorescein, 30 nM K-Ras G12V, 10 nM GST-cRaf, 30 min pre-incubation, read-out: K-Ras G12V Compound IC50): 1600 nM | IC50 ([1]; 10-concentration IC50 mode, 3-fold serial dilution, K-Ras G12V 30 nM, GST-cRaf 10 nM, read-out: IC50): 1600 nM | HillSlope ([1]; curve fit of % binding, K-Ras G12V 30 nM, GST-cRaf 10 nM): −0.5508 | blank corrected HTRF ([1]; conc. 1.67E−05): 2409 | blank corrected HTRF ([1]; conc. 1.85E−06): 6562 | blank corrected HTRF ([1]; conc. 2.06E−07): 10050 | blank corrected HTRF ([1]; conc. 2.29E−08): 12784 | blank corrected HTRF ([1]; conc. 2.54E−09): 13013 | blank corrected HTRF ([1]; conc. 5.00E−05): 2344 | blank corrected HTRF ([1]; conc. 5.56E−06): 4849 | blank corrected HTRF ([1]; conc. 6.17E−07): 8628 | blank corrected HTRF ([1]; conc. 6.86E−08): 11886 | blank corrected HTRF ([1]; conc. 7.62E−09): 13422 | % Binding ([1]; conc. 1.67E−05): 17.36% | % Binding ([1]; conc. 1.85E−06): 47.29% | % Binding ([1]; conc. 2.06E−07): 72.42% | % Binding ([1]; conc. 2.29E−08): 92.13% | % Binding ([1]; conc. 2.54E−09): 93.78% | % Binding ([1]; conc. 5.00E−05): 16.9% | % Binding ([1]; conc. 5.56E−06): 34.94% | % Binding ([1]; conc. 6.17E−07): 62.18% | % Binding ([1]; conc. 6.86E−08): 85.66% | % Binding ([1]; conc. 7.62E−09): 96.73%

CC(C)[C@H](NC(=O)[C@@H](Cc1ccc(O)cc1)NC(=O)[C@@H](Cc1c[nH]cn1)NC(=O)[C@H]1CCCN1C(=O)[C@@H](Cc1c[nH]c2ccccc12)NC(=O)c1ccc2c(c1)C(=O)OC21c2ccc(O)cc2Oc2cc(O)ccc21)C(=O)NCc1ccc(CC(=O)NCC(=O)N[C@@H](C(=O)N2CCC[C@@H]2C(=O)N[C@H](CCCNC(=N)N)C(=O)N[C@@H](C)C(=O)NCc2ccc(CC(=O)N3CCC[C@@H]3C(=O)N[C@H](CO)C(=O)N[C@H](CCC(=O)O)C(=O)N[C@H](CCCNC(=N)N)C(=O)NCC(=O)NCc3ccc(CC(=O)N4CCC[C@@H]4C(=O)N[C@H](CCCCN)C(=O)N[C@H](Cc4ccc(O)cc4)C(=O)N[C@H](CCCNC(=N)N)C(=O)N[C@@H](Cc4ccccc4)C(=O)NCc4ccc(CC(=O)N5CCC[C@@H]5C(=O)NCC(=O)N[C@H](CCCNC(=N)N)C(=O)N[C@H](Cc5c[nH]c6ccccc56)C(=O)NCC(=O)NCc5ccc(CC(=O)N[C@H](Cc6ccc(O)cc6)C(=O)N6CCC[C@@H]6C(=O)N[C@H](CCCNC(=N)N)C(=O)N[C@H](CCC(=O)O)C(=O)NCC(=O)NCc6ccc(CC(N)=O)cc6)cc5)cc4)cc3)cc2)C(C)C)cc1 [KRAS-1-2] (5FAM-[dW][dP][dH][dY]V[X1]G[dV][dP][dR]A[X1][dP][dS][dE][dR]G[X1][dP][dK][dY][dR]F[X1][dP]G[dR][dW]G[X1][dY][dP][dR][dE]G-{NHCH2C6H4(4-CH2CONH2)})
Kd [2]: 49 nM

CC(C)C[C@@H](NC(=O)c1ccc2c(c1)C(=O)OC21c2ccc(O)cc2Oc2cc(O)ccc21)C(=O)N1CCC[C@@H]1C(=O)N[C@H](CCC(=O)O)C(=O)N[C@H](CO)C(=O)N[C@@H](Cc1ccccc1)C(=O)NCc1ccc(CC(=O)NCC(=O)N[C@@H](C(=O)N2CCC[C@@H]2C(=O)N[C@H](CCCNC(=N)N)C(=O)N[C@@H](C)C(=O)NCc2ccc(CC(=O)N3CCC[C@@H]3C(=O)N[C@H](CO)C(=O)N[C@H](CCC(=O)O)C(=O)N[C@H](CCCNC(=N)N)C(=O)NCC(=O)NCc3ccc(CC(=O)N4CCC[C@@H]4C(=O)N[C@H](CCCCN)C(=O)N[C@H](Cc4ccc(O)cc4)C(=O)N[C@H](CCCNC(=N)N)C(=O)N[C@@H](Cc4ccccc4)C(=O)NCc4ccc(CC(=O)N[C@H](CCCNC(=N)N)C(=O)N[C@H](Cc5ccc(O)cc5)C(=O)N[C@@H](C(=O)N[C@H](CCC(=O)O)C(=O)N[C@@H](C)C(=O)NCc5ccc(CC(=O)NCC(=O)N[C@H](Cc6c[nH]c7ccccc67)C(=O)N[C@H](Cc6c[nH]cn6)C(=O)N[C@H](CCCNC(=N)N)C(=O)N[C@@H](C)C(=O)NCc6ccc(CC(N)=O)cc6)cc5)[C@H](C)O)cc4)cc3)cc2)C(C)C)cc1 [KRAS-1-3] (5FAM-[dL][dP][dE][dS]F[X1]G[dV][dP][dR]A[X1][dP][dS][dE][dR]G[X1][dP][dK][dY][dR]F[X1][dR][dY][dT][dE]A[X1]G[dW][dH][dR]A-{NHCH2C6H4(4-CH2CONH2)})
Kd [2]: 18 nM

CC(C)[C@H](NC(=O)[C@@H](Cc1ccc(O)cc1)NC(=O)[C@@H](Cc1c[nH]cn1)NC(=O)[C@H]1CCCN1C(=O)[C@@H](Cc1c[nH]c2ccccc12)NC(=O)c1ccc2c(c1)C(=O)OC21c2ccc(O)cc2Oc2cc(O)ccc21)C(=O)NCc1ccc(CC(=O)N2CCC[C@@H]2C(=O)N[C@H](CO)C(=O)NCC(=O)N[C@H](CO)C(=O)N[C@@H](C)C(=O)NCc2ccc(CC(=O)N3CCC[C@@H]3C(=O)N[C@H](CO)C(=O)N[C@H](CCC(=O)O)C(=O)N[C@H](CCCNC(=N)N)C(=O)NCC(=O)NCc3ccc(CC(=O)N4CCC[C@@H]4C(=O)N[C@H](CCCCN)C(=O)N[C@H](Cc4ccc(O)cc4)C(=O)N[C@H](CCCNC(=N)N)C(=O)N[C@@H](Cc4ccccc4)C(=O)NCc4ccc(CC(=O)N5CCC[C@@H]5C(=O)NCC(=O)N[C@H](CCCNC(=N)N)C(=O)N[C@H](Cc5c[nH]c6ccccc56)C(=O)NCC(=O)NCc5ccc(CC(=O)N[C@H](Cc6ccc(O)cc6)C(=O)N6CCC[C@@H]6C(=O)N[C@H](CCCNC(=N)N)C(=O)N[C@H](CCC(=O)O)C(=O)NCC(=O)NCc6ccc(CC(N)=O)cc6)cc5)cc4)cc3)cc2)cc1 [KRAS-1-5] (5FAM-[dW][dP][dH][dY]V[X1][dP][dS]G[dS]A[X1][dP][dS][dE][dR]G[X1][dP][dK][dY][dR]F[X1][dP]G[dR][dW]G[X1][dY][dP][dR][dE]G-{NHCH2C6H4(4-CH2CONH2)})
Kd [2]: 75 nM

CC(C)C[C@H](NC(=O)[C@@H](CCC(=O)O)NC(=O)[C@H](NC(=O)[C@H]1CCCN1C(=O)[C@@H](CCC(=O)O)NC(=O)c1ccc2c(c1)C(=O)OC21c2ccc(O)cc2Oc2cc(O)ccc21)[C@H](C)O)C(=O)NCc1ccc(CC(=O)NCC(=O)N[C@@H](C(=O)N2CCC[C@@H]2C(=O)N[C@H](CCCNC(=N)N)C(=O)N[C@@H](C)C(=O)NCc2ccc(CC(=O)N3CCC[C@@H]3C(=O)N[C@H](CO)C(=O)N[C@H](CCC(=O)O)C(=O)N[C@H](CCCNC(=N)N)C(=O)NCC(=O)NCc3ccc(CC(=O)N4CCC[C@@H]4C(=O)N[C@H](CCCCN)C(=O)N[C@H](Cc4ccc(O)cc4)C(=O)N[C@H](CCCNC(=N)N)C(=O)N[C@@H](Cc4ccccc4)C(=O)NCc4ccc(CC(=O)N[C@H](CCCNC(=N)N)C(=O)N[C@H](Cc5ccc(O)cc5)C(=O)N[C@@H](C(=O)N[C@H](CCC(=O)O)C(=O)N[C@@H](C)C(=O)NCc5ccc(CC(=O)NCC(=O)N[C@H](Cc6c[nH]c7ccccc67)C(=O)N[C@H](Cc6c[nH]cn6)C(=O)N[C@H](CCCNC(=N)N)C(=O)N[C@@H](C)C(=O)NCc6ccc(CC(N)=O)cc6)cc5)[C@H](C)O)cc4)cc3)cc2)C(C)C)cc1 [KRAS-1-10] (5FAM-[dE][dP][dT][dE]L[X1]G[dV][dP][dR]A[X1][dP][dS][dE][dR]G[X1][dP][dK][dY][dR]F[X1][dR][dY][dT][dE]A[X1]G[dW][dH][dR]A-{NHCH2C6H4(4-CH2CONH2)})
Kd [2]: 60 nM
